Assay results from patent US12692253B2, “Antimicrobial compounds and methods” (Curza Global, LLC, priority 2019, dated 2026).

Assays:
[1] = tested on: E. coli S30 extract (bacterial protein synthesis); assay: E. coli S30 extract coupled transcription-translation luciferase assay (inhibition of bacterial protein synthesis); format: biochemical; settings: % inhibition @ 1 μM, read-out: S30 IC50 (μM/% inhib.)
Method in brief: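 Coupled transcription-translation in E. coli S30 circular-DNA extract expressing luciferase from pBESTluc, with 8-point 2-fold compound dilutions; 1 hour at 37 °C, stopped at 4 °C. Luminescence read; % inhibition versus no-inhibitor wells, no-DNA wells as background.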

E. coli (Ec) = assay: Broth microdilution minimum inhibitory concentration (MIC), CLSI; format: cell-based; settings: Escherichia coli, growth medium with sodium bicarbonate, read-out: E. coli + bicarb MIC
Method in brief: (§1)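 Bacteria grown at 35±2 °C to 0.5 McFarland turbidity were added at 5×10^4 CFU/well to triplicate two-fold compound series (8 dilutions). Media were cation-adjusted Mueller-Hinton broth alone or with sodium bicarbonate (6.25 or 25 mM final) or heat-inactivated human serum (0–50%), per modified CLSI method.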

P. aeruginosa (Pa) = assay: as above; format: cell-based; settings: Pseudomonas aeruginosa, growth medium with sodium bicarbonate, read-out: Pa MIC + bicarb
Method in brief: as §1

S. aureus (Sa) = assay: as above; format: cell-based; settings: Staphylococcus aureus, growth medium with sodium bicarbonate, read-out: Sa + bicarb MIC
Method in brief: as §1

A. baumannn (Ab) = assay: as above; format: cell-based; settings: A. baumannn; growth medium with sodium bicarbonate; read-out: Ab + bicarb MIC
Method in brief: as §1

E. faecalis (Ef) = assay: as above; format: cell-based; settings: Enterococcus faecalis, growth medium with sodium bicarbonate, read-out: Ef + bicarb MIC
Method in brief: as §1

[2] = molecular target: Rabbit Reticulocyte Lysate (eukaryotic protein synthesis); assay: Rabbit reticulocyte lysate luciferase assay (inhibition of eukaryotic protein synthesis); format: biochemical; settings: % inhibition @ 1 μM, read-out: Rabbit reticulocyte IC50 (μM/% inhib.)
Method in brief: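 In vitro translation of luciferase control RNA in nuclease-treated rabbit reticulocyte lysate with amino acid mixture, compounds in 2-fold serial dilution, 90 minutes at 30° C. Luminescence read after luciferase reagent; % inhibition relative to water no-inhibitor controls, with no-RNA background wells.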

Structure (SMILES)	IC50 [1] [µM]	MIC (E. coli (Ec)) [µg/mL]	MIC (P. aeruginosa (Pa)) [µg/mL]	MIC (S. aureus (Sa)) [µg/mL]	MIC (A. baumannn (Ab)) [µg/mL]	MIC (E. faecalis (Ef)) [µg/mL]	IC50 [2] [µM]
CC(COc1ccc(-n2ccc(NC(=O)N3CCN(C(=O)C(C)(C)N)CC3)nc2=O)cc1)N1CC2(CC(N)C2)C1 (centres unmarked) [Compound 181]	0.5 to 1	< 8	> 32	< 8	> 32	< 8	≥ 1
CC(C)(N)C(=O)N1CCN(C(=O)Nc2ccn(-c3ccc(C[C@H](N)C(=O)N4C[C@@H]5[C@@H](CN)[C@@H]5C4)cc3)c(=O)n2)CC1 [Compound 182]	≥ 1	> 32	> 32	> 32	> 32	> 32	≥ 1
CC(C)(N)C(=O)N1CCN(C(=O)Nc2ccn(-c3ccc(C[C@H](N)C(=O)N4CC5CC5(CN)C4)cc3)c(=O)n2)CC1 (some centres unmarked) [Compound 183]	≥ 1	> 32	> 32	> 32	> 32	> 32	≥ 1
CC(C)(N)C(=O)N1CCN(C(=O)Nc2ccn(-c3ccc(CCCN4CC5CC5(CN)C4)cc3)c(=O)n2)CC1 (centres unmarked) [Compound 184]	≥ 1	< 8	> 32	< 8	> 32	8 to 32	≥ 1
CC(C)(N)C(=O)N1CCN(C(=O)Nc2ccn(-c3ccc(CCCN4C[C@@H]5[C@@H](CN)[C@@H]5C4)cc3)c(=O)n2)CC1 [Compound 185]	≥ 1	< 8	> 32	< 8	> 32	8 to 32	≥ 1
CC(CN1C[C@@H]2[C@@H](CN)[C@@H]2C1)Oc1ccc(-n2ccc(NC(=O)N3CCN(C(=O)C(C)(C)N)CC3)nc2=O)cc1 (some centres unmarked) [Compound 186]	< 0.5	< 8	> 32	< 8	8 to 32	< 8	≥ 1
CC(C)(N)C(=O)N1CCN(C(=O)Nc2ccn(-c3ccc(OCCN4C[C@@H]5[C@@H](CN)[C@@H]5C4)cc3)c(=O)n2)CC1 [Compound 187]	< 0.5	< 8	8 to 32	< 8	8 to 32	< 8	≥ 1
CC(COc1ccc(-n2ccc(NC(=O)N3CCN(C(=O)C(C)(C)N)CC3)nc2=O)cc1)N1C[C@@H]2[C@@H](CN)[C@@H]2C1 (some centres unmarked) [Compound 188]	< 0.5	< 8	8 to 32	< 8	8 to 32	< 8	≥ 1
CC(COc1ccc(-n2ccc(NC(=O)N3CCN(C(=O)C(C)(C)N)CC3)nc2=O)cc1)N1CC2CC2(CN)C1 (centres unmarked) [Compound 189]	< 0.5	< 8	> 32	< 8	> 32	< 8	≥ 1
CC(C)(N)C(=O)N1CCN(C(=O)Nc2ccn(-c3ccc(CNC[C@@H]4[C@H]5CNC[C@@H]45)cc3)c(=O)n2)CC1 [Compound 190]	< 0.5	< 8	> 32	< 8	> 32	8 to 32	≥ 1
CC(Cc1ccc(-n2ccc(NC(=O)N3CCN(C(=O)C(C)(C)N)CC3)nc2=O)cc1)N(C)C1CC2(CC(N)C2)C1 (centres unmarked) [Compound 191]	≥ 1	< 8	8 to 32	< 8	8 to 32	< 8	≥ 1
CC(Cc1ccc(-n2ccc(NC(=O)N3CCN(C(=O)C(C)(C)N)CC3)nc2=O)cc1F)NC1CC2(CC(N)C2)C1 (centres unmarked) [Compound 192]	≥ 1	< 8	> 32	< 8	> 32	< 8	≥ 1
CN(CCc1ccc(-n2ccc(NC(=O)N3CCN(C(=O)C(C)(C)N)CC3)nc2=O)cc1)C1CC2(CC(N)C2)C1 (centres unmarked) [Compound 193]	≥ 1	< 8	> 32	< 8	> 32	8 to 32	≥ 1
CC(Cc1ccc(-n2ccc(NC(=O)N3CCN(C(=O)C(C)(C)N)CC3)nc2=O)cc1)N(CC1CC1)C1CC2(CC(N)C2)C1 (centres unmarked) [Compound 194]	0.5 to 1	< 8	> 32	< 8	8 to 32	< 8	≥ 1
